Like-named read-outs stand apart in the source and are kept apart here. Values belong to the compound of their own block, whether it stands above or below them.
Columns and labels:
Caco-2 cells [1] = assay: MTT antiproliferative assay; format: cell-based, Human; conditions: for IC50: Caco-2 cell line, 72 h incubation, mean ± SE
Procedure: Human colorectal adenocarcinoma Caco-2 cells were kindly provided by Dr. Edith Brot-Laroche (Universite Pierre et Marie Curie-Paris 6 UMR S872, Les Cordeliers, France) and were maintained in a humidified atmosphere of 5% CO2 at 37 °C in Dulbecco’s Modified Eagles medium (DMEM) (Gibco Invitrogen, Paisley, UK) supplemented with 20% fetal bovine serum, 1% non-essential amino acids, 1% penicillin (1000 U/mL), 1% streptomycin ([…]) and 1% amphotericin (250 U/mL). For treatment, gold complexes were initially dissolved in DMSO to a concentration of 20 mM and then diluted on cell culture without fetal bovine serum to the required work concentrations, which was added 24 h post-seeding. Then, cells were incubated at 37 °C for the required time for each assay.
Cell viability was determined with the 3-(4,5-dimethyl-2-thiazoyl)-2,5-diphenyltetrazolium bromide (MTT) assay as previously described by Mármol et al.. For IC50 calculation, cells were grown in 96-well plates at a density of 4000 cells per well and incubated overnight at standard culture conditions. Then, cells were exposed 72 h to 0–20 μM of each gold complex and changes in absorbance were converted into percentage of growth inhibition in comparison to negative control (DMSO. Absorbance was measured with SPECTROstar Nano (BMG Labtech).

[2] = system: panel of Gram-positive and Gram-negative strains; assay: Disk diffusion method, whole panel (summary in words); format: cell-based; conditions: for antibacterial effect (in words): whole panel, Gram-positive and Gram-negative strains
Procedure: (§1) To evaluate the antibacterial potential of gold derivatives, […] bacterial strains were selected: E. coli, P. aeruginosa, S. enterica, E. faecalis, L. monocytogenes, S. epidermidis, S. aureus. Dis diffusion assay was performed following Clinical & Laboratory Standards Institute (CLSI) recommendations. Active cultures (0.5 McFarland) from all strains were spread onto Mueller–Hinton Agar (MHA, Oxoid, Basingstoke, UK) and disks impregnated with 10 µL of each gold complex or control (DMSO for negative control, phenol for positive control) were placed. Plates were and incubated for 22 h ± 2 h at 37 °C ± 1 °C and then the diameter of the inhibition zone was determined.
Given that NHC-gold derivatives might display antibacterial activity, we evaluated the antibacterial effect of the complexes toward a panel of Gram-positive and Gram-negative strains using the disk diffusion method. The selected strains are human pathogen or commensal bacteria and the results are summarized on Table 1.

[3] = n-Octanol-water distribution coefficient, shake-flask; format: physicochemical; conditions: for LogP7.4 (distribution coefficient): n-octanol / buffered aqueous solution pH 7.4
Procedure: The n-octanol-water coefficients of the complexes were determined as previously reported using a shake-flask method. Buffered-saline distilled water (100 mL, phosphate buffer [PO4^3−] = 10 mM, [NaCl] = 0.15 M, pH 7.4) and n-octanol (100 mL) were shaken for 72 h to allow saturation of both phases. Approximately 1 mg of the complexes was dissolved in 5 mL of the aqueous phase and 5 mL of the organic phase were added, mixing for 10 min. The resulting emulsion was centrifuged to separate the phases. The concentration of the compounds in each phase was determined using UV absorbance spectroscopy. LogP was defined as log{[compound(organic)]/[compound(aqueous)]}.

E. faecalis = assay: Disk diffusion test; format: cell-based; conditions: for Inhibition Zone: complex 5 μg, 24 h incubation, diameter including disk (6 mm)
Procedure: (§2) To evaluate the antibacterial potential of gold derivatives, six bacterial strains were selected: E. coli, P. aeruginosa, S. enterica, E. faecalis, L. monocytogenes, S. epidermidis, S. aureus. Dis diffusion assay was performed following Clinical & Laboratory Standards Institute (CLSI) recommendations. […] Plates were and incubated for 22 h ± 2 h at 37 °C ± 1 °C and then the diameter of the inhibition zone was determined.

L. monocytogenes = assay: Disk diffusion test; format: cell-based; conditions: for Inhibition Zone: complex 5 μg, 24 h incubation, diameter including disk (6 mm)
Procedure: as §2

P. aeruginosa = assay: Disk diffusion test; format: cell-based; conditions: for Inhibition Zone: complex 5 μg, 24 h incubation, diameter including disk (6 mm)
Procedure: as §2

S. aureus 13565 = assay: Disk diffusion test; format: cell-based; conditions: for Inhibition Zone: complex 5 μg, 24 h incubation, diameter including disk (6 mm)
Procedure: as §2

S. aureus 2593 = assay: Disk diffusion test; format: cell-based; conditions: for Inhibition Zone: complex 5 μg, 24 h incubation, diameter including disk (6 mm)
Procedure: as §2

S. epidermidis = assay: Disk diffusion test; format: cell-based; conditions: for Inhibition Zone: complex 5 μg, 24 h incubation, diameter including disk (6 mm)
Procedure: as §2

S. enterica 25928 = assay: Disk diffusion test; format: cell-based; conditions: Salmonella enterica, 25928; positive control 5.35 mg, 24 h incubation; diameter including disk (6 mm)
Procedure: as §1

E. coli 13216 = assay: Disk diffusion test; format: cell-based
Procedure: as §2

E. coli 25922 = assay: Disk diffusion test; format: cell-based; conditions: Escherichia coli, 25922, 24 h, read-out: Inhibition Zone
Procedure: as §2

E. coli 8739 = assay: Disk diffusion test; format: cell-based
Procedure: as §2

S. enterica 14028 = assay: Disk diffusion test; format: cell-based; conditions: Salmonella enterica, 14028, 24 h, read-out: Inhibition Zone
Procedure: as §2

Caco-2 cells [4] = system: Caco-2 cells; parameters: method as in PMID 31546196; conditions: cited from earlier work
[5] = parameters: method as in PMID 31546196; conditions: cited from earlier work
Caco-2 cells [6] = system: Caco-2 cells; parameters: method as in PMID 31546196; conditions: earlier work of the authors; cited from earlier work
[7] = system: thioredoxin reductase enzyme; parameters: method as in PMID 31546196; conditions: earlier work of the authors; cited from earlier work
[8] = complex 5 μg, 24 h incubation, diameter including disk (6 mm)

IC50 (Caco-2 cells [1]): > 100 µM
Structure (SMILES): Cn1ccn(C)[c]1=[Au-2][Cl] [[AuCl(IMe)], reference compound]
antiproliferative effect (in words) (Caco-2 cells [1]; Caco-2 cells): ineffective

Structure (SMILES): Cn1cc[n+](C)[c]1[Au-][C]#CCOc1c(-c2ccc(Cl)cc2)oc2ccccc2c1=O [1c, [Au(Lc)(IMe)] (R = Cl; IMe = C5H10N2)]
antibacterial effect (in words) [2]: no antibacterial effect
IC50 (Caco-2 cells [1]): 15.1 ± 3.04 µM
LogP7.4 (distribution coefficient) [3]: 1.96

Structure (SMILES): COc1ccc(-c2oc3ccccc3c(=O)c2OCC#[C][Au-][c]2n(-c3c(C(C)C)cccc3C(C)C)cc[n+]2-c2c(C(C)C)cccc2C(C)C)cc1 [2d, [Au(Ld)(IPr)] (R = OMe; IPr = C27H38N2)]
antibacterial effect (in words) [2]: no antibacterial effect
IC50 (Caco-2 cells [1]): 48.2 ± 14.6 µM
LogP7.4 (distribution coefficient) [3]: 3.40

Structure (SMILES): CC(C)c1cccc(C(C)C)c1-n1cc[n+](-c2c(C(C)C)cccc2C(C)C)[c]1[Au-][C]#CCOc1c(-c2ccc(Cl)cc2)oc2ccccc2c1=O [2c, [Au(Lc)(IPr)] (R = Cl; IPr = C27H38N2)]
Inhibition Zone (E. faecalis): 10.25 ± 1.41 mm
Inhibition Zone (L. monocytogenes): 15.33 ± 0.47 mm
Inhibition Zone (P. aeruginosa): -
Inhibition Zone (S. aureus 13565): 12.19 ± 0.88 mm
Inhibition Zone (S. aureus 2593): 10.49 ± 1.13 mm
Inhibition Zone (S. epidermidis): 18.06 ± 2.04 mm
antibacterial effect on Gram-negative strains (in words) [2]: inactive against Gram-negative strains
antibacterial effect on Gram-positive strains (in words) [2]: able to inhibit the growth of all Gram-positive bacterial strains
IC50 (Caco-2 cells [1]): 46.1 ± 22.5 µM
LogP7.4 (distribution coefficient) [3]: 1.11

Structure (SMILES): COc1ccc(-c2oc3ccccc3c(=O)c2OCC#[C][Au-][c]2n(C)cc[n+]2C)cc1 [1d, [Au(Ld)(IMe)] (R = OMe; IMe = C5H10N2)]
Inhibition Zone (E. faecalis): 9.47 ± 1.67 mm
Inhibition Zone (L. monocytogenes): 14.25 ± 1.06 mm
Inhibition Zone (P. aeruginosa): -
Inhibition Zone (S. aureus 13565): 11.86 ± 0.20 mm
Inhibition Zone (S. aureus 2593): 9.70 ± 0.02 mm
Inhibition Zone (S. epidermidis): 17.23 ± 0.87 mm
antibacterial effect on Gram-negative strains (in words) [2]: inactive against Gram-negative strains
antibacterial effect on Gram-positive strains (in words) [2]: able to inhibit the growth of all Gram-positive bacterial strains
IC50 (Caco-2 cells [1]): 16.3 ± 1.04 µM
LogP7.4 (distribution coefficient) [3]: 0.22

Structure (SMILES): CC(=O)OC[C@H]1O[C@@H]([S-])[C@H](OC(C)=O)[C@@H](OC(C)=O)[C@@H]1OC(C)=O.CCP(CC)CC.[Au+] [Auranofin, 2,3,4,6-tetraacetyl-1-thio-β-D-glucopyranosato-S-triethylphosphane gold(I), reference compound]
IC50 (Caco-2 cells [1]): 1.8 ± 0.1 µM
LogP7.4 (distribution coefficient) [3]: −2.53

fold lower IC50 of 2a than homologue 1a (Caco-2 cells [1]; Caco-2, 72 h, p < 0.05): 2.65 times
IC50 (Caco-2 cells [1]): 16.3 ± 2.04 µM
LogP7.4 (distribution coefficient) [3]: 0.42
Structure (SMILES): CC(C)c1cccc(C(C)C)c1-n1cc[n+](-c2c(C(C)C)cccc2C(C)C)[c]1[Au-][C]#CCOc1c(-c2ccccc2)oc2ccccc2c1=O [2a, [Au(La)(IPr)] (R = H; IPr = C27H38N2)]
lipophilic character (in words) ([3]; from log P, pH 7.4): balanced hydrophilic-lipophilic character

Structure (SMILES): Oc1ccccc1 [Phenol, reference compound]
zone of inhibition at 5350 µg/disc (S. enterica 25928): 19.2 ± 0.42 mm
zone of inhibition at 5350 µg/disc (E. coli 13216; Escherichia coli, 13216, 24 h, read-out: Inhibition Zone): 20.7 ± 2.97 mm
zone of inhibition at 5350 µg/disc (E. coli 25922): 23.4 ± 1.26 mm
zone of inhibition at 5350 µg/disc (E. coli 8739; Escherichia coli, 8739, 24 h, read-out: Inhibition Zone): 22.7 ± 1.37 mm
zone of inhibition at 5350 µg/disc (E. faecalis; Enterococcus faecalis, 24 h, read-out: Inhibition Zone): 13.5 ± 2.12 mm
zone of inhibition at 5350 µg/disc (L. monocytogenes; Listeria monocytogenes, 24 h, read-out: Inhibition Zone): 16.58 ± 0.12 mm
zone of inhibition at 5350 µg/disc (P. aeruginosa; Pseudomonas aeruginosa, 24 h, read-out: Inhibition Zone): 30.5 ± 1.45 mm
zone of inhibition at 5350 µg/disc (S. aureus 13565; Staphylococcus aureus, 13565, 24 h, read-out: Inhibition Zone): 17.2 ± 3.38 mm
zone of inhibition at 5350 µg/disc (S. aureus 2593; Staphylococcus aureus, 2593, 24 h, read-out: Inhibition Zone): 12.1 ± 0.73 mm
zone of inhibition at 5350 µg/disc (S. enterica 14028): 27.8 ± 1.11 mm
zone of inhibition at 5350 µg/disc (S. epidermidis; Staphylococcus epidermidis, 24 h, read-out: Inhibition Zone): 22.7 ± 4.49 mm

Structure (SMILES): O=c1c(OCC#[C][Au][PH](c2ccccc2)(c2ccccc2)c2ccccc2)c(-c2ccc(Cl)cc2)oc2ccccc12 [[Au(L2c)PPh3]]
IC50 (Caco-2 cells [4]): 5.34 ± 0.05 µM
distribution coefficient value [5]: 1.17

IC50 (Caco-2 cells [1]): 9.09 ± 3.22 µM
Structure (SMILES): CC(C)c1cccc(C(C)C)c1-n1ccn(-c2c(C(C)C)cccc2C(C)C)[c]1=[Au][Cl] [[AuCl(IPr)], reference compound]

Structure (SMILES): Cn1cc[n+](C)[c]1[Au-][C]#CCOc1c(-c2ccccc2)oc2ccccc2c1=O [1a, [Au(La)(IMe)] (R = H; IMe = C5H10N2)]
antibacterial effect (in words) [2]: no antibacterial effect
IC50 (Caco-2 cells [1]): 43.3 ± 5.06 µM
LogP7.4 (distribution coefficient) [3]: 0.34

Structure (SMILES): CC(C)c1cccc(C(C)C)c1-n1cc[n+](-c2c(C(C)C)cccc2C(C)C)[c]1[Au-][C]#CCOc1c(-c2ccc(Br)cc2)oc2ccccc2c1=O [2b, [Au(Lb)(IPr)] (R = Br; IPr = C27H38N2)]
Inhibition Zone (E. coli 13216; [8]): 8.10 ± 0.60 mm
Inhibition Zone (E. coli 8739; [8]): 8.97 ± 0.49 mm
Inhibition Zone (E. faecalis): 12.1 ± 0.99 mm
Inhibition Zone (L. monocytogenes): 17.17 ± 0.24 mm
Inhibition Zone (P. aeruginosa): -
Inhibition Zone (S. aureus 13565): 14.03 ± 0.17 mm
Inhibition Zone (S. aureus 2593): 12.79 ± 1.11 mm
Inhibition Zone (S. epidermidis): 20.95 ± 0.91 mm
antibacterial effect (in words) [2]: able to interfere with the development of both Gram positive and Gram negative strains
IC50 (Caco-2 cells [1]): 53.9 ± 22.7 µM
LogP7.4 (distribution coefficient) [3]: 1.47

Structure (SMILES): O=c1c(OCC#[C][Au][PH](c2ccccc2)(c2ccccc2)c2ccccc2)c(-c2ccc(Br)cc2)oc2ccccc12 [[Au(L2b)PPh3]]
ROS levels (in words) (Caco-2 cells [6]): induce an increase in ROS levels
thioredoxin reductase inhibition (in words) [7]: able to inhibit thioredoxin reductase enzyme

From article PMC9612383, “Biological Activity of NHC-Gold-Alkynyl Complexes Derived from 3-Hydroxyflavones” (Pharmaceutics, 2022)
